Legend:
[1] = tested on: eGFP-expressing recombinant CVB3; assay type: cell-based, coxsackievirus B3; conditions: for % of eGFP + cells, 0 Hr: compound added 0 hr post infection at its peak activity concentration, DMSO 26.0; for % of eGFP + cells, 0 Hr / % of eGFP + cells, 1 Hr / % of eGFP + cells, 2 Hr: read 6 hr post infection; for % of eGFP + cells, 1 Hr: compound added 1 hr post infection at its peak activity concentration, DMSO 23.7; for % of eGFP + cells, 2 Hr: compound added 2 hr post infection at its peak activity concentration, DMSO 24.8; for Inhibition of infected cells: eGFP-CVB3 m.o.i=1, compound added at time of infection, 6 hr post infection, 1-(% eGFP+ cells with compound/% with DMSO only)
coxsackievirus B3 (CVB3) = assay: Cell viability assay, prevention of cell death caused by CVB3 infection; assay type: cell-based; conditions: for Selectivity index: 50% Cytotoxic concentration/50% activity concentration; for IC50 / EC (peak activity): Enterovirus B; for IC50: read-out: 50% activity concentration (IC50); for EC (peak activity): HeLa-RW cells and CVB3 at low multiplicity of infection, read-out: Peak Activity Conc.
Protocol: Procedure: Enteroviruses rapidly cause cell death, and a cell viability assay was used to examine the cytotoxicity of each compound and to identify the concentration needed to prevent cell death caused by coxsackievirus B3 (CVB3) infection.
Compounds were diluted two-fold and added to wells of 384 well plate. HeLa-RW cells were then added (cytotoxicity testing), or cells and CVB3 were added to provide a low multiplicity of infection to determine concentration of peak activity or 50% maximal concentration. Selectivity index is defined as the 50% Cytotoxic concentration/50% activity concentration

CVB3-H3 = assay: Plaque reduction assay, CVB3-H3 in HeLa-RW cells; assay type: cell-based, coxsackievirus B3; conditions: compound added 30 min before infection, CVB3-H3 MOI 1, HeLa-RW, 6 hours; log10(titer with DMSO only/titer with inhibitor)

SMILES	% of eGFP + cells, 0 Hr [1] [%]	% of eGFP + cells, 1 Hr [1] [%]	% of eGFP + cells, 2 Hr [1] [%]	Inhibition of infected cells [1] [%]	Selectivity index (coxsackievirus B3 (CVB3))	IC50 (coxsackievirus B3 (CVB3)) [nM]	EC (peak activity) (coxsackievirus B3 (CVB3)) [µM]	Log10 reduction of virus titer (CVB3-H3)
CC(C)n1ncc2c(C(=O)Nc3ccc4c(c3)OCO4)cc(-c3ccccc3)nc21 [Compound 21, N-(1,3-Benzodioxol-5-yl)-1-isopropyl-6-phenyl-1H-pyrazolo [3,4-b]pyridine-4-carboxamide]	0.0	0.0	0.0	100	21	1190	3.13	4.5
N#Cc1ccc(OCc2nc3ccccc3n2-c2ccccc2)cc1 [Compound 42, 4-[(1-Phenyl-1H-benzimidazol-2-yl)methoxy) benzonitrile]	0.0	0.1	0.0	100	8	3000	6.25	4.5
Cl.OC(c1cc(C(F)(F)F)nc2c(C(F)(F)F)cccc12)C1CCCCN1 (centres unmarked) [Compound 22, [2,8-Bis (trifluoromethyl)-4-quinolinyl](2-piperidinyl)methanol hydrochloride (1:1), reference compound]	21.1	18.5	27.9	100	6	1600	3.13	4.0
Cc1ccc(-c2cc(C(=O)NN)c3ccccc3n2)s1 [Compound 25, 2-(5-Methyl-2-thienyl)-4-quinoline-carbohydrazide]	0.1	0.1	0.0	100	32	780	3.13	3.7
O=C(Nc1nc(CN2CCCC2)cs1)c1cc(-c2cccs2)nc2ccccc12 [Compound 33, N-[4-(1-Pyrrolidinylmethyl)-1,3-thiazol-2-yl)-2-(2-thienyl)-4-quinoline-carboxamide]	0.0	0.0	0.0	100	44	570	3.13	4.5
Cc1ccccc1NC(=O)c1cc(-c2cccs2)nc2c1cnn2C(C)C [Compound 1, 1-Isopropyl-N-(2-methylphenyl)-6-(2-thienyl)-1H-pyrazolo [3,4-b]pyridine-4-carboxamide]	0.0	0.0	0.0	100	42	600	1.56	4.4
C/C(=C\c1ccccc1)C1NC(N)=Nc2nc3ccccc3n21 (centres unmarked) [Compound 68, 4-[(1E)-1-Phenyl-1-propen-2-yl)-1,4-dihydro[1,3,5] triazino[1,2-a]benzimidazol-2-amine]	0.0	0.0	0.0	100	21	1210	3.13	3.7

From patent US20150164910A1, “ANTIVIRAL COMPOUNDS AND METHODS OF USE” (The Regents of the University of Califonia, priority 2012, published 2015)
